PubChem BioAssay AID248 (DTP/NCI, 2004)
Values joined by “and” are separate entries in the source; they are usually repeats but may differ in a detail not shown here. Equal entries are not always repeated. Toxic doses and inconclusive results are not listed. Rule as the data show it: active = T/C of 150% or more; inactive = T/C below 125%.

System: L1210 leukemia ip in BDF1 mice, survival T/C
Assay: NCI In Vivo Anticancer Drug Screen. Data for tumor model L1210 Leukemia (intraperitoneal) in B6D2F1 (BDF1) mice
Conditions: endpoint: mean survival time, higher = longer survival
In short: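 Tumor cells were implanted, animals were treated, and survival was followed. The result divides the treated measurement by the vehicle-control measurement.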

[1] = dose: 100.0 mg/kg/injection, schedule: Q01DX001 (ip), vehicle: Klucel (hydroxypropylcellulose) (HPC)
[2] = dose: 200.0 mg/kg/injection, schedule: Q01DX001 (ip), vehicle: Klucel (hydroxypropylcellulose) (HPC)
[3] = dose: 100.0 mg/kg/injection, schedule: Q04DX003 (ip), vehicle: saline with Tween-80
[4] = dose: 200.0 mg/kg/injection, schedule: Q04DX003 (ip), vehicle: saline with Tween-80
[5] = dose: 400.0 mg/kg/injection, schedule: Q01DX009 (ip), vehicle: saline with Tween-80
[6] = dose: 100.0 mg/kg/injection, schedule: Q04DX002 (ip), vehicle: Klucel (hydroxypropylcellulose) (HPC)
[7] = dose: 400.0 mg/kg/injection, schedule: Q01DX001 (ip), vehicle: Klucel (hydroxypropylcellulose) (HPC)
[8] = dose: 100.0 mg/kg/injection, schedule: Q01DX001 (ip), vehicle: saline
[9] = dose: 200.0 mg/kg/injection, schedule: Q01DX001 (ip), vehicle: saline
[10] = dose: 400.0 mg/kg/injection, schedule: Q01DX001 (ip), vehicle: saline

Measured: T/C

O=C/C=C/C=C/C=C/C=C/C=C\c1ccccc1
inactive: dose: 75.0 mg/kg/injection, schedule: Q01DX001 (ip), vehicle: other 92 % of control | dose: 150.0 mg/kg/injection, schedule: Q01DX001 (ip), vehicle: other 96 % of control | dose: 300.0 mg/kg/injection, schedule: Q01DX001 (ip), vehicle: other 100 % of control

COc1ccccc1-n1c(O)c(N=Nc2ccc(C)cc2)c(=O)n(-c2ccc(Cl)cc2)c1=S
inactive: [1] 106 % of control | [2] 100 % of control

Nc1ccc(S(=O)(=O)Nc2ccc(C(=O)O)cc2)cc1
inactive: [3] 98 % of control | [4] 98 % of control | dose: 400.0 mg/kg/injection, schedule: Q04DX003 (ip), vehicle: saline with Tween-80 98 % of control

Cc1ccc(Br)c([N+](=O)[O-])c1
inactive: dose: 22.2 mg/kg/injection, schedule: Q01DX001 (ip), vehicle: carboxymethylcellulose (CMC) 93 % of control | dose: 33.35 mg/kg/injection, schedule: Q01DX001 (ip), vehicle: carboxymethylcellulose (CMC) 93 % of control | dose: 50.0 mg/kg/injection, schedule: Q01DX001 (ip), vehicle: carboxymethylcellulose (CMC) 93 % of control | dose: 75.0 mg/kg/injection, schedule: Q01DX001 (ip), vehicle: carboxymethylcellulose (CMC) 110 % of control | dose: 100.0 mg/kg/injection, schedule: Q01DX001 (ip), vehicle: carboxymethylcellulose (CMC) 109 % of control | dose: 200.0 mg/kg/injection, schedule: Q01DX001 (ip), vehicle: carboxymethylcellulose (CMC) 115 % of control | dose: 400.0 mg/kg/injection, schedule: Q01DX001 (ip), vehicle: carboxymethylcellulose (CMC) 107 % of control

N#CC1c2ccccc2C=CN1C(=O)CCBr (stereo not drawn)
inactive: dose: 100.0 mg/kg/injection, schedule: Q01DX009 (ip), vehicle: saline with Tween-80 112 % of control | dose: 200.0 mg/kg/injection, schedule: Q01DX009 (ip), vehicle: saline with Tween-80 102 % of control | [5] 96 % of control

COC(=O)c1ccc(=O)n(C/C=C(\C)CCC2OC2(C)C)c1 (stereo not drawn)
inactive: dose: 100.0 mg/kg/injection, schedule: Q04DX003 (ip), vehicle: water 100 % of control | dose: 200.0 mg/kg/injection, schedule: Q04DX003 (ip), vehicle: water 104 % of control | dose: 400.0 mg/kg/injection, schedule: Q04DX003 (ip), vehicle: water 102 % of control

CC1(C)CC(=O)C2=C(C1)Nc1ccccc1NC2c1ccc([N+](=O)[O-])cc1 (stereo not drawn)
inactive: [6] 103 % of control | dose: 200.0 mg/kg/injection, schedule: Q04DX002 (ip), vehicle: Klucel (hydroxypropylcellulose) (HPC) 109 % of control | dose: 400.0 mg/kg/injection, schedule: Q04DX002 (ip), vehicle: Klucel (hydroxypropylcellulose) (HPC) 106 % of control

CC/C(=C(\CC)c1ccc(OCCOS(=O)(=O)c2ccc(C)cc2)cc1)c1ccc(OCCOS(=O)(=O)c2ccc(C)cc2)cc1
inactive: dose: 6.25 mg/kg/injection, schedule: Q04DX002 (ip), vehicle: saline 101 % of control | dose: 12.5 mg/kg/injection, schedule: Q04DX002 (ip), vehicle: saline 105 % of control | dose: 25.0 mg/kg/injection, schedule: Q04DX002 (ip), vehicle: saline 97 % of control

COc1ccc(C(=O)/C=C/c2ccccc2)cc1
inactive: [1] 102 % of control | [2] 113 % of control | [7] 100 % of control

O=[N+]([O-])c1ccccc1SNc1ccc(NSc2ccccc2[N+](=O)[O-])cc1
inactive: dose: 3.13 mg/kg/injection, schedule: Q01DX001 (ip), vehicle: saline with Tween-80 105 % of control | dose: 6.25 mg/kg/injection, schedule: Q01DX001 (ip), vehicle: saline with Tween-80 100 % of control | dose: 12.5 mg/kg/injection, schedule: Q01DX001 (ip), vehicle: saline with Tween-80 97 % of control

CCc1ccc(C)[n+](C)c1
inactive: dose: 75.0 mg/kg/injection, schedule: Q01DX001 (ip), vehicle: saline 96 % of control | dose: 150.0 mg/kg/injection, schedule: Q01DX001 (ip), vehicle: saline 95 % of control

ClC1=C(Cl)C2(Cl)C(COc3ccc(Cl)cc3)CC1(Cl)C2(Cl)Cl (stereo not drawn)
inactive: dose: 50.0 mg/kg/injection, schedule: Q01DX009 (ip), vehicle: other 91 % of control | dose: 100.0 mg/kg/injection, schedule: Q01DX009 (ip), vehicle: Klucel (hydroxypropylcellulose) (HPC) 94 % of control | dose: 100.0 mg/kg/injection, schedule: Q04DX003 (ip), vehicle: other 109 % of control | dose: 200.0 mg/kg/injection, schedule: Q01DX009 (ip), vehicle: Klucel (hydroxypropylcellulose) (HPC) 96 % of control | dose: 200.0 mg/kg/injection, schedule: Q04DX003 (ip), vehicle: other 104 % of control | dose: 400.0 mg/kg/injection, schedule: Q01DX009 (ip), vehicle: Klucel (hydroxypropylcellulose) (HPC) 96 % of control

CCOC(=O)C1=C(C(=O)OCC)C2(c3ccccc3)NC1(c1ccccc1)c1ccccc12
inactive: [8] 101 % of control | [9] 97 % of control | [10] 97 % of control

COc1ccc2c(c1)CC/C(=C\c1ccc(OCCN3CCCC3)cc1)C2=O
inactive: dose: 12.5 mg/kg/injection, schedule: Q04DX003 (ip), vehicle: saline with Tween-80 105 % of control | dose: 25.0 mg/kg/injection, schedule: Q04DX003 (ip), vehicle: saline with Tween-80 107 % of control | dose: 50.0 mg/kg/injection, schedule: Q04DX003 (ip), vehicle: saline with Tween-80 100 % of control | [3] 111 % of control

CC(=O)N(C)N=O
inactive: dose: 10.0 mg/kg/injection, schedule: Q01DX001 (ip), vehicle: saline 115 % of control | dose: 20.0 mg/kg/injection, schedule: Q01DX001 (ip), vehicle: saline 115 % of control | dose: 30.0 mg/kg/injection, schedule: Q01DX001 (ip), vehicle: saline 115 % of control | dose: 40.0 mg/kg/injection, schedule: Q01DX001 (ip), vehicle: saline 114 % of control

Cc1c(Cl)cccc1NC(=O)Nc1cccc2c(O)cccc12
inactive: dose: 50.0 mg/kg/injection, schedule: Q01DX009 (ip), vehicle: saline with Tween-80 92 % of control | dose: 100.0 mg/kg/injection, schedule: Q01DX001 (ip), vehicle: saline with Tween-80 89 % of control | dose: 100.0 mg/kg/injection, schedule: Q04DX002 (ip), vehicle: saline with Tween-80 86 % of control and 89 % of control | dose: 200.0 mg/kg/injection, schedule: Q01DX001 (ip), vehicle: saline with Tween-80 90 % of control | dose: 200.0 mg/kg/injection, schedule: Q04DX002 (ip), vehicle: saline with Tween-80 86 % of control and 91 % of control | [4] 88 % of control | dose: 400.0 mg/kg/injection, schedule: Q01DX001 (ip), vehicle: saline with Tween-80 89 % of control | [5] 94 % of control and 87 % of control | dose: 400.0 mg/kg/injection, schedule: Q04DX002 (ip), vehicle: saline with Tween-80 87 % of control and 89 % of control

O=C(O)/C(=N\Nc1ccccc1)c1ccccc1
inactive: dose: 50.0 mg/kg/injection, schedule: Q01DX001 (ip), vehicle: saline 107 % of control | [8] 96 % of control | [9] 110 % of control | [10] 90 % of control

COc1ccc(/C=C2\CSC(=O)NC2=O)cc1OC
inactive: [8] 104 % of control | [9] 106 % of control | [10] 106 % of control

C#CC(NC(C)(C)CC(C)(C)C)C(C)C (stereo not drawn)
inactive: dose: 100.0 mg/kg/injection, schedule: Q04DX002 (ip), vehicle: saline 109 % of control | dose: 200.0 mg/kg/injection, schedule: Q04DX002 (ip), vehicle: saline 109 % of control | dose: 400.0 mg/kg/injection, schedule: Q04DX002 (ip), vehicle: saline 100 % of control

N#CC(C#N)=C1CCC(=C(C#N)C#N)CC1
inactive: dose: 50.0 mg/kg/injection, schedule: Q04DX003 (ip), vehicle: Klucel (hydroxypropylcellulose) (HPC) 104 % of control | [1] 105 % of control | dose: 100.0 mg/kg/injection, schedule: Q04DX003 (ip), vehicle: Klucel (hydroxypropylcellulose) (HPC) 121 % of control | [2] 118 % of control | dose: 200.0 mg/kg/injection, schedule: Q04DX003 (ip), vehicle: Klucel (hydroxypropylcellulose) (HPC) 96 % of control | [7] 105 % of control

O=C1NC(=O)C2(CCCc3ccccc32)N1 (stereo not drawn)
inactive: dose: 25.0 mg/kg/injection, schedule: Q04DX002 (ip), vehicle: Klucel (hydroxypropylcellulose) (HPC) 110 % of control | dose: 50.0 mg/kg/injection, schedule: Q04DX002 (ip), vehicle: Klucel (hydroxypropylcellulose) (HPC) 104 % of control | [6] 100 % of control

O=C(Cl)C(Cl)(Cl)Cl
inactive: dose: 100.0 mg/kg/injection, schedule: Q04DX002 (sc), vehicle: olive oil, sesame oil, peanut oil 103 % of control | dose: 200.0 mg/kg/injection, schedule: Q04DX002 (sc), vehicle: olive oil, sesame oil, peanut oil 116 % of control | dose: 400.0 mg/kg/injection, schedule: Q04DX002 (sc), vehicle: olive oil, sesame oil, peanut oil 100 % of control
